Test results published in patent EP4656640A1, “IRAK4 DEGRADER AND USE THEREOF” (Shanghai Qilu Pharmaceutical Research and Development …, priority 2023, dated 2024).
Read-outs that look alike come from different tables or passages of the source.

Tests used:
IRAK4 [1] = biological target: T1, IRAK4 (Homo sapiens, UniProt Q9NWZ3); assay: Degradation of IRAK4 in SU-DHL-2 cells (flow cytometry); type: cell-based; design: The degradation level of IRAK4 protein in SU-DHL-2 cell line by the compounds was detected by flow cytometry; endogenous in cells; host or cells: SU-DHL-2; OCI-LY3
T1 sequence (Q9NWZ3 1-460): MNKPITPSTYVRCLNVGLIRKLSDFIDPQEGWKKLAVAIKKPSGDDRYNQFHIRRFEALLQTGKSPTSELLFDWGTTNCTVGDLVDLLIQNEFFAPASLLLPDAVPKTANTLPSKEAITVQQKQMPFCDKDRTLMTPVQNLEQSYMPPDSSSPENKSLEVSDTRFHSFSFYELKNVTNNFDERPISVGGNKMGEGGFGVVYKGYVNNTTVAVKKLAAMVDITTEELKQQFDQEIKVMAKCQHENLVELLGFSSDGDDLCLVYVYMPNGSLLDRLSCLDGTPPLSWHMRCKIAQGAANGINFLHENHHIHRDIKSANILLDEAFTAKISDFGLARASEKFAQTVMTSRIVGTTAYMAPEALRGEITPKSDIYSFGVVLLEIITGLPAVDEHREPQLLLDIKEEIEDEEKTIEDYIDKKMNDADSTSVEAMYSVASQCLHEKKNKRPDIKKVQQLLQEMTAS
Experimental: The degradation level of IRAK4 protein in SU-DHL-2 cell line by the compounds was detected by flow cytometry.
Step 2: On day 1, the cells were seeded at a density of 2 × 10^5 cells per well in 100 µL in a 96-well plate. The compounds were dissolved in DMSO to a final concentration of 10 mM, and then diluted with culture medium at a 1:5 concentration gradient to prepare 10 concentrations. The diluted solutions were added to the cells to obtain a maximum final concentration of 2 µM. Wells containing cells treated with 0.1% DMSO served as the […] The cells were incubated at 37°C in a 5% CO2 incubator for 24 hours.
Step 3: After centrifugation, the cells were washed with FACS buffer. The cells were stained for viability discrimination using the LIVE/DEAD™ Fixable Blue Dead Cell Stain Kit, and surface staining of monocytes was performed with PE Mouse Anti-Human CD14, followed by incubation at 4°C for 30 minutes.
Step 4: After centrifugation, the cells were washed with FACS buffer. Fix buffer I, equal in volume to the cultured cells, was added, and the cells were fixed at 37°C for 10 minutes.
Step 5: After centrifugation, the cells were washed with FACS buffer. 150 µL of Perm III reagent was added, and the cells were incubated at 4°C for 30 minutes to permeabilize the membranes. After centrifugation, the cells were washed with FACS buffer.
Flow cytometry analysis was performed using a flow cytometer.
The flow cytometry data were analyzed using Flowjo software. Data presentation and DC50 (half-maximal degradation concentration) calculation were performed using Prism 8.0.2 (GraphPad).

IRAK4 [2] = biological target: T1, IRAK4; type: cell-based; design: endogenous in cells; host or cells: OCI-LY3; conditions: read-out: OCI-LY3 DC50; OCI-LY3 cells
[3] = Dog pharmacokinetics, oral gavage (Experiment 3); type: in vivo; conditions: Beagle dogs, oral gavage 2.5 mg/kg, plasma
Experimental: Healthy Beagle dogs, male, weighing about 8-10 kg, 3 animals per group.
The animals were not fasted and had free access to water.
Venous blood (0.5-0.8 mL) was collected at 15 minutes, 30 minutes, 1 hour, 2 hours, 4 hours, 8 hours, and 24 hours after oral gavage administration, placed in K2EDTA tubes, and centrifuged at 4°C to separate plasma. The concentration of the compound in plasma was determined by liquid chromatography-tandem mass spectrometry.
The main pharmacokinetic parameters were calculated using WinNonlin. […] Table 8. Pharmacokinetic parameters of some compounds of the present disclosure administered orally to dogs

[4] = Mouse pharmacokinetics, oral (Experiment 1); type: in vivo, C57BL/6 mice; conditions: mice, PO 100 mg/kg, fasted overnight, plasma
Experimental: C57BL/6 mice were used as test animals to study the pharmacokinetic behavior of the compounds of the present disclosure in mouse plasma after oral administration at a dose of 100 mg/kg.
C57BL/6, male, transferred from the animal repository of the laboratory institution (999M-018).
Three male C57BL/6 mice were fasted overnight (10-14 hours) with free access to water one day before administration. The mice were fed 4 hours after administration. The dose for PO administration was 100 mg/kg, with an administration volume of 20 mL/kg.
After administration, blood samples (0.03 mL) were collected from the mice via venipuncture at 0.083, 0.25, 0.5, 1, 2, 4, 8, and 24 hours. The samples were placed in EDTA-K2 tubes and centrifuged at 6800 rpm for 5 minutes at 2-8°C. The plasma was separated and stored at -80°C.
• 1) 10 µL of plasma sample was added to 200 µL of methanol for precipitation. After mixing, the mixture was centrifuged at 18000 g for 10 minutes. • 2) The processed supernatant solution was taken for LC/MS/MS analysis to determine the concentration of the test compound.
• Liquid phase conditions: Shimadzu LC-30AD pump • Mass spectrometry conditions: AB Sciex API 5500 mass spectrometer • Chromatographic column: Phenomenex Kinetex 2.6 µm C18 50 3.0 mm • Mobile phase: Solution A was 0.1% formic acid in water, and solution B was 0.1% formic acid in acetonitrile • Flow rate: 0.6 mL/min • Elution time: Gradient elution for 0-1.6 minutes.
The main pharmacokinetic parameters were calculated using WinNonlin 8.0.

TNFα secretion = assay: Inhibition of induced TNFα secretion in human PBMCs (CBA); type: cell-based; conditions: PBMC
Experimental: (§1) The effect of PROTAC small molecules on inflammatory factors in PBMCs downstream of IRAK4 induced by TLR and IL-1 was detected based on the CBA (cytometric bead array) method.
(§2) Step 2: The density of PBMCs was adjusted to 1 E6/mL, and 150 µL of PBMCs in 1640 complete medium were seeded into a 96-well plate, followed by incubation at 37°C for 1 hour.
(§3) Step 3: 50 µL of serially diluted small molecule (working concentration: 10000 nM, 1:3 dilution) drugs were inoculated into the plate in a 37°C incubator for 8 hours.
(§4) Step 4: 10 µL of stimulants were added respectively, with final concentrations of 100 ng/mL for LPS, 1 µg/mL for R848, and 100 ng/mL for IL-1β.
(§5) Step 5: CBA assay. The concentrations of IL-6 and TNF-α in the cell culture supernatant were determined using Hu IL-6 CBA Flex Set A7 and Hu TNF- CBA Flex Set D9.
(§6) Step 6: Standard samples were prepared: 2500 pg/mL, 1250 pg/mL,...0. A 1:2 serial dilution was performed to obtain 10 concentrations.
(§7) Step 7: The mixed capture beads were resuspended in capture bead diluent (1:50), and cell culture supernatant (50 µL) was added, followed by incubation at room temperature for 10 minutes.
(§8) Step 8: The detection reagent prepared with detection diluent was added, and the mixture was incubated in the dark at room temperature for 3 hours. At the end of incubation, the samples were washed once with wash buffer and resuspended for detection.
(§9) The concentrations of IL-6 and TNFα were calculated using the standard curve method. Data presentation and IC50 calculation were performed using Prism 8.0.2.

IL-6 secretion = assay: Inhibition of induced IL-6 secretion in human PBMCs (CBA); type: cell-based; conditions: PBMC
Experimental: as §1, §2, §3, §4, §5, §6, §7, §8, §9

[5] = read-out: SU-DHL-2 DC50; SU-DHL-2 cells, 24 hours incubation
[6] = SU-DHL-2 cells, 24 hours incubation; read-out: SU-DHL-2 DC50
[7] = IL-1β 100 ng/mL, read-out: IC50, TNFα secretion induced by IL-1β
[8] = LPS 100 ng/mL, read-out: IC50, TNFα secretion induced by LPS
[9] = R848 1 µg/mL, read-out: IC50, TNFα secretion induced by R848
[10] = IL-1β 100 ng/mL, read-out: IC50 of compounds against induced secretion, IL-6, IL-1β
[11] = LPS 100 ng/mL, read-out: IC50 of compounds against induced secretion, IL-6, LPS
[12] = R848 1 µg/mL, read-out: IC50 of compounds against induced secretion, IL-6, R848

## Cn1c(=O)n(C2CCC(=O)NC2=O)c2cccc(C#CCOCC3(C(=O)N4CCC5(CC4)CC(n4cc(NC(=O)c6cnn7ccc(N8C[C@H]9C[C@@H]8CO9)nc67)c(C(F)F)n4)C5)CC3)c21 (stereo partly shown) [Example 7]
IRAK4 [1]; [5]
  DC50: 12 nM
IRAK4 [2]
  DC50: 10 nM

## Cn1c(=O)n(C2CCC(=O)NC2=O)c2cccc(C#CCOCCC(=O)N3CCC4(CC3)CC(n3cc(NC(=O)c5cnn6ccc(N7C[C@H]8C[C@@H]7CO8)nc56)c(C(F)F)n3)C4)c21 (stereo partly shown) [Example 8]
IRAK4 [1]; [5]
  DC50: 4 nM
IRAK4 [2]
  DC50: 2 nM

## Cn1c(=O)n(C2CCC(=O)NC2=O)c2cccc(C#CCOCC3CC(N4CCC5(CC4)CC(n4cc(NC(=O)c6cnn7ccc(N8C[C@H]9C[C@@H]8CO9)nc67)c(C(F)F)n4)C5)C3)c21 (stereo partly shown) [Example 9]
IRAK4 [1]; [6]
  DC50: 2.7 nM
IRAK4 [2]
  DC50: 2.3 nM

## Cn1c(=O)n(C2CCC(=O)NC2=O)c2cccc(C#CCOC(C)(C)C(=O)N3CCC4(CC3)CC(n3cc(NC(=O)c5cnn6ccc(N7C[C@H]8C[C@@H]7CO8)nc56)c(C(F)F)n3)C4)c21 (stereo partly shown) [Example 10]
IRAK4 [1]; [5]
  DC50: 17 nM
IRAK4 [2]
  DC50: 13 nM

## Cn1c(=O)n(C2CCC(=O)NC2=O)c2cccc(C#CCOCC(=O)N3CCC4(CC3)CC(n3cc(NC(=O)c5cnn6ccc(N7C[C@H]8C[C@@H]7CO8)nc56)c(C(F)F)n3)C4)c21 (stereo partly shown) [Example 12]
IRAK4 [1]; [5]
  DC50: 5 nM
IRAK4 [2]
  DC50: 5 nM

## Cn1c(=O)n(C2CCC(=O)NC2=O)c2cccc(C#CCOC3CCN(C(=O)N4CCC5(CC4)CC(n4cc(NC(=O)c6cnn7ccc(N8C[C@H]9C[C@@H]8CO9)nc67)c(C(F)F)n4)C5)CC3)c21 (stereo partly shown) [Example 13]
[3]
  AUC(0-t) at 24 h: 521 ng·h/mL
  Cmax: 102 ng/mL
  MRT inf: 4.5 h
  half-life: 2.1 h
[4]
  AUC(0-inf): 19200 ng·h/mL
  AUC(0-t) at 24 h: 16300 ng·h/mL
  Cmax: 2160 ng/mL
  MRT inf: 10.9 h
  Tmax: 1 h
  half-life: 7.6 h
TNFα secretion; [7]
  IC50: 13 nM
TNFα secretion; [8]
  IC50: 22.3 nM
TNFα secretion; [9]
  IC50: 20 nM
IL-6 secretion; [10]
  IC50: 13.2 nM
IL-6 secretion; [11]
  IC50: 19.7 nM
IL-6 secretion; [12]
  IC50: 10 nM

## Cn1c(=O)n(C2CCC(=O)NC2=O)c2cccc(C#CCCCCN3CCC4(CC3)CC(n3cc(NC(=O)c5cnn6ccc(N7C[C@H]8C[C@@H]7CO8)nc56)c(C(F)F)n3)C4)c21 (stereo partly shown) [Example 15]
IRAK4 [1]; [6]
  DC50: 5 nM
IRAK4 [2]
  DC50: 1.5 nM

## Cn1c(=O)n(C2CCC(=O)NC2=O)c2cccc(C#CCCCN3CCC4(CC3)CC(n3cc(NC(=O)c5cnn6ccc(N7C[C@H]8C[C@@H]7CO8)nc56)c(C(F)F)n3)C4)c21 (stereo partly shown) [Example 17]
IRAK4 [1]; [6]
  DC50: 1 nM
IRAK4 [2]
  DC50: 1 nM

## Cn1c(=O)n(C2CCC(=O)NC2=O)c2cccc(C#CCCC(=O)N3CCC4(CC3)CC(n3cc(NC(=O)c5cnn6ccc(N7C[C@H]8C[C@@H]7CO8)nc56)c(C(F)F)n3)C4)c21 (stereo partly shown) [Example 24]
IRAK4 [1]; [6]
  DC50: 4 nM
IRAK4 [2]
  DC50: 3 nM

## Cn1c(=O)n(C2CCC(=O)NC2=O)c2cccc(C#CCO[C@H]3C[C@H](CN4CCC5(CC4)CC(n4cc(NC(=O)c6cnn7ccc(N8C[C@H]9C[C@@H]8CO9)nc67)c(C(F)F)n4)C5)C3)c21 (stereo partly shown) [Example 29]
IRAK4 [1]; [5]
  DC50: 3 nM
IRAK4 [2]
  DC50: 1 nM

## Cn1c(=O)n(C2CCC(=O)NC2=O)c2cccc(C#CCO[C@H]3C[C@@H](CN4CCC5(CC4)CC(n4cc(NC(=O)c6cnn7ccc(N8C[C@H]9C[C@@H]8CO9)nc67)c(C(F)F)n4)C5)C3)c21 (stereo partly shown) [Example 30]
IRAK4 [1]; [5]
  DC50: 3 nM
IRAK4 [2]
  DC50: 1 nM

## Cn1c(=O)n(C2CCC(=O)NC2=O)c2cccc(C#CCO[C@H]3CC[C@H](CN4CCC5(CC4)CC(n4cc(NC(=O)c6cnn7ccc(N8C[C@H]9C[C@@H]8CO9)nc67)c(C(F)F)n4)C5)CC3)c21 (stereo partly shown) [Example 31]
[3]
  AUC(0-t) at 24 h: 198 ng·h/mL
  Cmax: 15 ng/mL
  MRT inf: 12 h
  half-life: 8 h
[4]
  AUC(0-inf): 5460 ng·h/mL
  AUC(0-t) at 24 h: 4890 ng·h/mL
  Cmax: 364 ng/mL
  MRT inf: 10.4 h
  Tmax: 3.3 h
  half-life: 7.3 h
TNFα secretion; [7]
  IC50: 2.1 nM
TNFα secretion; [8]
  IC50: 7.7 nM
TNFα secretion; [9]
  IC50: 8.2 nM
IL-6 secretion; [10]
  IC50: 9.3 nM
IL-6 secretion; [11]
  IC50: 4.6 nM
IL-6 secretion; [12]
  IC50: 0.9 nM
